Data from ChEMBL document CHEMBL4715788, “Hit-to-Lead Optimization of Mouse Trace Amine Associated Receptor 1 (mTAAR1) Agonists with a Diphenylmethane-Scaffold: Design, Synthesis, and Biological Study” (J Med Chem, 2016).
Active and inactive are the calls of the source. No cut-off for these calls is given here.

How the values were obtained:
[1] = molecular target: Trace amine-associated receptor 1 (Mus musculus, UniProt Q923Y8); assay: Agonist activity at mouse TAAR1 expressed in HEK293T cells assessed as induction of cAMP production by BRET assay; assay type: functional, cell-based
[2] = molecular target: Trace amine-associated receptor 1 (Mus musculus) (UniProt Q923Y8); assay: Agonist activity at mouse TAAR1 expressed in HEK293T cells assessed as induction of cAMP production by BRET assay relative to control; assay type: functional, cell-based; conditions: filed as agonist
HepG2 [3] = assay: Increase in glucose production in human HepG2 cells at incubated for 4 hrs by colorimetric glucose assay; assay type: functional, cell-based
Mus musculus = assay: Increase in plasma glycaemia in CD1 mouse at 4.0 ug/kg, ip measured after 15 mins; assay type: functional, organism-based
HepG2 [4] = assay: Hyperglycemic activity in human HepG2 cells incubated for 4 hrs by colorimetric glucose assay; assay type: functional, cell-based; conditions: HepG2, 4 h
HepG2 [5] = assay: Inhibition of glucose production in human HepG2 cells at 10 uM incubated for 4 hrs by colorimetric glucose assay; assay type: functional, cell-based
HepG2 [6] = assay: Increase in glucose production in human HepG2 cells at 0.1 to 1 uM incubated for 4 hrs by colorimetric glucose assay; assay type: functional, cell-based; conditions: dose 0.1-1 µM

Trace amine-associated receptor 1 (Mus musculus), sequence (Q923Y8 whole entry): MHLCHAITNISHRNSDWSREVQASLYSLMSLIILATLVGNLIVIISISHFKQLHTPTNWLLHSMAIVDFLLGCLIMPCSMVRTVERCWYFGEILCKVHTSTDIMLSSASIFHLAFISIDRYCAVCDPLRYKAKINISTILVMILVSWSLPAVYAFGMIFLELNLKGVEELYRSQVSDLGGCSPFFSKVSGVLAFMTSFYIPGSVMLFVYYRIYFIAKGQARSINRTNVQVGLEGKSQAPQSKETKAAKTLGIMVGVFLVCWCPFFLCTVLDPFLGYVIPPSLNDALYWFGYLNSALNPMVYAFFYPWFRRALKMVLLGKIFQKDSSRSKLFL
Trace amine-associated receptor 1, sequence (Q923Y8 whole entry): as above

Structure (SMILES) | EC50 [1] | Efficacy [2] | further results
CCN(C(C)=O)c1ccc(Cc2ccc(CCN)cc2C)cc1C(C)C | 440 nM | 100% | 
Cc1cc(CCN)ccc1-c1ccc(N)cc1 | 1180 nM | 100% | 
CC(=O)NCCOc1ccc(Cc2ccc(NC(C)=O)cc2)cc1 | > 10000 nM |  | 
Cc1cc(CCN)cc(C)c1-c1ccc(N)cc1 | 633 nM | 100% | 
CC(=O)Nc1ccc(Cc2ccc(OCCN)cc2C)cc1 | > 10000 nM |  | 
CC(=O)Nc1ccc(Cc2ccc(OCCNC(=N)NC(=N)N)cc2C)cc1 | > 10000 nM |  | 
Cc1cc(OCCNC(=N)NC(=N)N)ccc1Cc1ccc(N)cc1 | > 10000 nM |  | 
CC(=O)Nc1ccc(Cc2ccc(CCN)cc2C)cc1 | 3100 nM | 100% | 
CCN(C(C)=O)c1ccc(Cc2ccc(CCNC(C)=O)cc2C)cc1C(C)C | > 10000 nM | 100% | 
Cc1cc(CCN)cc(C)c1Cc1ccc(N)cc1 | 158 nM | 100% | 
Cc1cc(CCN)ccc1Cc1ccc(N)cc1 | 119 nM | 100% | Activity (HepG2 [3]): Dose-dependent effect; Activity (Mus musculus): Active
NCCc1ccc(Oc2ccc(O)cc2)c(I)c1 |  |  | EC50 (HepG2 [4]): 840 nM
Cc1cc(CCN)ccc1Cc1ccc(O)cc1 | 98 nM | 100% | inhibition (HepG2 [5]): Active; Activity (HepG2 [6]): Active; Activity (Mus musculus): Active
CC(=O)Nc1ccc(Cc2ccc(OCCN)cc2)cc1 | > 10000 nM |  | 
CCNc1ccc(Cc2ccc(CCN)cc2C)cc1C(C)C | 102 nM | 100% | 
CC(=O)NCCOc1ccc(Cc2ccc(NC(C)=O)cc2)c(C)c1 | > 10000 nM |  | 
Cc1cc(OCCN)cc(C)c1Cc1ccc(N)cc1 | 134 nM | 100% | 
